Assay results published in ChEMBL document CHEMBL1148480, “Structure-activity studies of orexin a and orexin B at the human orexin 1 and orexin 2 receptors led to orexin 2 receptor selective and orexin 1 receptor preferring ligands” (J Med Chem, 2004).
Residues, ends and D or L forms follow the SMILES beside them.

Target: T1, Orexin/Hypocretin receptor type 1 (Homo sapiens, UniProt O43613)
T1 sequence (O43613 whole entry): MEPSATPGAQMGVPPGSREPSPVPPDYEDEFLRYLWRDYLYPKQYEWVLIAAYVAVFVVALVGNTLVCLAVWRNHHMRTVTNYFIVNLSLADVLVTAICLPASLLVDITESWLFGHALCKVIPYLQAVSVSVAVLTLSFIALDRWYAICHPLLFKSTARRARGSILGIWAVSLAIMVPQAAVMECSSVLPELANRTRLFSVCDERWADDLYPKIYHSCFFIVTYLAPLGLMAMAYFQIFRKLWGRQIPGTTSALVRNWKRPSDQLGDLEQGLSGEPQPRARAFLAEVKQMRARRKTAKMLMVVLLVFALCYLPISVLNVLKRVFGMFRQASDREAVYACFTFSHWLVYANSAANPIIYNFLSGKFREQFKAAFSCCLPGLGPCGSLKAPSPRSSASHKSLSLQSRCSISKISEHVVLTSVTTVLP
Assay: Effective agonist concentration to human orexin receptor type 1 determined using the Xlfit program
Assay type: functional

| SMILES | EC50 |
| --- | --- |
| CC[C@H](C)[C@H](NC(=O)CNC(=O)[C@H](C)NC(=O)[C@H](C)NC(=O)[C@H](Cc1c[nH]cn1)NC(=O)[C@H](CC(N)=O)NC(=O)CNC(=O)[C@H](CO)NC(=O)[C@H](C)NC(=O)[C@H](CCC(N)=O)NC(=O)[C@H](CC(C)C)NC(=O)[C@H](CC(C)C)NC(=O)[C@H](CCCN=C(N)N)NC(=O)[C@H](CCC(N)=O)NC(=O)[C@H](CC(C)C)NC(=O)[C@H](CCCN=C(N)N)NC(=O)[C@@H]1CCCN1C(=O)[C@H](CCC(N)=O)NC(=O)[C@H](CC(C)C)NC(=O)CN)C(=O)N[C@@H](CC(C)C)C(=O)N[C@H](C(=O)N[C@@H](CCSC)C(N)=O)[C@@H](C)O (H-GLQPRLQRLLQASGNHAAGILTM-NH2) | 4.46 µM |
| CC[C@H](C)[C@H](NC(=O)CNC(=O)[C@H](C)NC(=O)[C@H](C)NC(=O)[C@H](Cc1c[nH]cn1)NC(=O)[C@H](CC(N)=O)NC(=O)CNC(=O)[C@H](CO)NC(=O)[C@H](C)NC(=O)[C@H](CCC(N)=O)NC(=O)[C@H](CC(C)C)NC(=O)[C@H](CC(C)C)NC(=O)[C@H](CCCN=C(N)N)NC(=O)[C@H](CCC(N)=O)NC(=O)[C@H](CC(C)C)NC(=O)[C@H](CCCN=C(N)N)NC(=O)[C@H](C)NC(=O)[C@H](CCC(N)=O)NC(=O)[C@H](CC(C)C)NC(=O)CN)C(=O)N[C@@H](CC(C)C)C(=O)N[C@H](C(=O)N[C@@H](CCSC)C(N)=O)[C@@H](C)O (H-GLQARLQRLLQASGNHAAGILTM-NH2) | 2.3 µM |
| CC[C@H](C)[C@H](NC(=O)CNC(=O)[C@H](C)NC(=O)[C@H](C)NC(=O)[C@H](Cc1c[nH]cn1)NC(=O)[C@H](CC(N)=O)NC(=O)CNC(=O)[C@H](CO)NC(=O)[C@H](C)NC(=O)[C@H](CCC(N)=O)NC(=O)[C@H](CC(C)C)NC(=O)[C@H](CC(C)C)NC(=O)[C@H](CCCN=C(N)N)NC(=O)[C@H](CCC(N)=O)NC(=O)[C@H](CC(C)C)NC(=O)[C@H](CCCN=C(N)N)NC(=O)CNC(=O)[C@H](CCC(N)=O)NC(=O)[C@H](C)NC(=O)CN)C(=O)N[C@@H](CC(C)C)C(=O)N[C@H](C(=O)N[C@@H](CCSC)C(N)=O)[C@@H](C)O (H-GAQGRLQRLLQASGNHAAGILTM-NH2) | 7.41 µM |
| CC[C@H](C)[C@H](NC(=O)CNC(=O)[C@H](C)NC(=O)[C@H](C)NC(=O)[C@H](Cc1cnc[nH]1)NC(=O)[C@H](CC(N)=O)NC(=O)CNC(=O)[C@H](CO)NC(=O)[C@H](C)NC(=O)[C@H](CCC(N)=O)NC(=O)[C@H](CC(C)C)NC(=O)[C@H](CC(C)C)NC(=O)[C@H](CCCNC(=N)N)NC(=O)[C@H](CCC(N)=O)NC(=O)[C@H](CC(C)C)NC(=O)[C@H](CCCNC(=N)N)NC(=O)CNC(=O)[C@@H](N)CCC(N)=O)C(=O)N[C@@H](CC(C)C)C(=O)N[C@H](C(=O)N[C@@H](CCSC)C(N)=O)[C@@H](C)O (H-QGRLQRLLQASGNHAAGILTM-NH2) | 22.2 µM |
| CC[C@H](C)[C@H](NC(=O)CNC(=O)[C@H](C)NC(=O)[C@H](C)NC(=O)[C@H](Cc1cnc[nH]1)NC(=O)[C@H](CC(N)=O)NC(=O)CNC(=O)[C@H](CO)NC(=O)[C@H](C)NC(=O)[C@H](CCC(N)=O)NC(=O)[C@H](CC(C)C)NC(=O)[C@@H](N)CC(C)C)C(=O)N[C@@H](CC(C)C)C(=O)N[C@H](C(=O)N[C@@H](CCSC)C(N)=O)[C@@H](C)O (H-LLQASGNHAAGILTM-NH2) | > 1000 µM |
| CC[C@H](C)[C@H](NC(=O)CNC(=O)[C@H](C)NC(=O)[C@H](C)NC(=O)[C@H](Cc1c[nH]cn1)NC(=O)[C@H](CC(N)=O)NC(=O)CNC(=O)[C@H](CO)NC(=O)[C@H](C)NC(=O)[C@H](CCC(N)=O)NC(=O)[C@H](CC(C)C)NC(=O)[C@H](CC(C)C)NC(=O)[C@H](CCCN=C(N)N)NC(=O)[C@@H]1CCCN1C(=O)[C@H](CC(C)C)NC(=O)[C@H](CCCN=C(N)N)NC(=O)CNC(=O)[C@H](CCC(N)=O)NC(=O)[C@H](CC(C)C)NC(=O)CN)C(=O)N[C@@H](CC(C)C)C(=O)N[C@H](C(=O)N[C@@H](CCSC)C(N)=O)[C@@H](C)O (stereo in doubt; form 1) | 5.26 µM |
| CC[C@H](C)[C@H](NC(=O)CNC(=O)[C@H](C)NC(=O)[C@H](C)NC(=O)[C@H](Cc1cnc[nH]1)NC(=O)[C@H](CC(N)=O)NC(=O)CNC(=O)[C@H](CO)NC(=O)[C@H](C)NC(=O)[C@H](CCC(N)=O)NC(=O)[C@H](CC(C)C)NC(=O)[C@H](CC(C)C)NC(=O)[C@H](CCCNC(=N)N)NC(=O)[C@H](CCC(N)=O)NC(=O)[C@@H]1CCCN1C(=O)[C@H](CCCNC(=N)N)NC(=O)CNC(=O)[C@H](CCC(N)=O)NC(=O)[C@H](CC(C)C)NC(=O)CN)C(=O)N[C@@H](CC(C)C)C(=O)N[C@H](C(=O)N[C@@H](CCSC)C(N)=O)[C@@H](C)O (H-GLQGRPQRLLQASGNHAAGILTM-NH2) | > 1000 µM |
| CC[C@H](C)[C@H](NC(=O)CNC(=O)[C@H](C)NC(=O)[C@H](C)NC(=O)[C@H](Cc1c[nH]cn1)NC(=O)[C@H](CC(N)=O)NC(=O)CNC(=O)[C@H](CO)NC(=O)[C@H](C)NC(=O)[C@H](CCC(N)=O)NC(=O)[C@H](CC(C)C)NC(=O)[C@H](CC(C)C)NC(=O)[C@H](CCCNC(=N)N)NC(=O)[C@H](CCC(N)=O)NC(=O)[C@H](C)NC(=O)[C@H](CCCNC(=N)N)NC(=O)CNC(=O)[C@H](CCC(N)=O)NC(=O)[C@H](CC(C)C)NC(=O)CN)C(=O)N[C@@H](CC(C)C)C(=O)N[C@H](C(=O)N[C@@H](CCSC)C(=O)O)[C@@H](C)O (H-GLQGRAQRLLQASGNHAAGILTM-OH) | 11.4 µM |
| CC[C@H](C)[C@H](NC(=O)CNC(=O)[C@H](C)NC(=O)[C@H](C)NC(=O)[C@H](Cc1cnc[nH]1)NC(=O)[C@H](CC(N)=O)NC(=O)CNC(=O)[C@H](CO)NC(=O)[C@H](C)NC(=O)[C@H](CCC(N)=O)NC(=O)[C@H](CC(C)C)NC(=O)[C@H](CC(C)C)NC(=O)[C@H](C)NC(=O)[C@H](CCC(N)=O)NC(=O)[C@H](CC(C)C)NC(=O)[C@H](CCCNC(=N)N)NC(=O)CNC(=O)[C@H](CCC(N)=O)NC(=O)[C@H](CC(C)C)NC(=O)CN)C(=O)N[C@@H](CC(C)C)C(=O)N[C@H](C(=O)N[C@@H](CCSC)C(=O)O)[C@@H](C)O (H-GLQGRLQALLQASGNHAAGILTM-OH) | 4.34 µM |

Now those with a lower EC50, led by results:

| EC50 | SMILES |
| --- | --- |
| 2.21 µM | CC[C@H](C)[C@H](NC(=O)CNC(=O)[C@H](C)NC(=O)[C@H](C)NC(=O)[C@H](Cc1c[nH]cn1)NC(=O)[C@H](CC(N)=O)NC(=O)[C@H](C)NC(=O)[C@H](CO)NC(=O)[C@H](C)NC(=O)[C@H](CCC(N)=O)NC(=O)[C@H](CC(C)C)NC(=O)[C@H](CC(C)C)NC(=O)[C@H](CCCN=C(N)N)NC(=O)[C@H](CCC(N)=O)NC(=O)[C@H](CC(C)C)NC(=O)[C@H](CCCN=C(N)N)NC(=O)CNC(=O)[C@H](CCC(N)=O)NC(=O)[C@H](CC(C)C)NC(=O)CN)C(=O)N[C@@H](CC(C)C)C(=O)N[C@H](C(=O)N[C@@H](CCSC)C(=O)O)[C@@H](C)O (H-GLQGRLQRLLQASANHAAGILTM-OH) |
| 1.64 µM | CC[C@H](C)[C@H](NC(=O)CNC(=O)[C@H](C)NC(=O)[C@H](C)NC(=O)[C@H](Cc1cnc[nH]1)NC(=O)[C@H](CC(N)=O)NC(=O)CNC(=O)[C@H](CO)NC(=O)[C@H](C)NC(=O)[C@H](CCC(N)=O)NC(=O)[C@H](CC(C)C)NC(=O)[C@H](CC(C)C)NC(=O)[C@H](CCCNC(=N)N)NC(=O)[C@H](CCC(N)=O)NC(=O)[C@H](CC(C)C)NC(=O)[C@H](CCCNC(=N)N)NC(=O)CNC(=O)[C@H](C)NC(=O)[C@H](CC(C)C)NC(=O)CN)C(=O)N[C@@H](CC(C)C)C(=O)N[C@H](C(=O)N[C@@H](CCSC)C(N)=O)[C@@H](C)O (H-GLAGRLQRLLQASGNHAAGILTM-NH2) |
| 0.64 µM | CC[C@H](C)[C@H](NC(=O)CNC(=O)[C@H](C)NC(=O)[C@H](C)NC(=O)[C@H](Cc1c[nH]cn1)NC(=O)[C@H](CC(N)=O)NC(=O)CNC(=O)[C@H](C)NC(=O)CNC(=O)[C@H](Cc1c[nH]cn1)NC(=O)[C@H](CC(C)C)NC(=O)[C@H](CC(C)C)NC(=O)[C@H](CCC(=O)O)NC(=O)[C@H](Cc1ccc(O)cc1)NC(=O)[C@H](CC(C)C)NC(=O)[C@H](CCCN=C(N)N)NC(=O)[C@H](CS)NC(=O)[C@H](CO)NC(=O)[C@H](CS)NC(=O)[C@@H](NC(=O)[C@H](CCCCN)NC(=O)[C@H](CCC(N)=O)NC(=O)[C@H](CCCN=C(N)N)NC(=O)[C@H](CS)NC(=O)[C@H](CS)NC(=O)[C@H](CC(=O)O)NC(=O)[C@@H]1CCCN1)[C@@H](C)O)C(=O)N[C@@H](CC(C)C)C(=O)N[C@H](C(=O)N[C@@H](CC(C)C)C(N)=O)[C@@H](C)O (H-PDCCRQKTCSCRLYELLHGAGNHAAGILTL-NH2) |
| 0.16 µM | CC[C@H](C)[C@H](NC(=O)CNC(=O)[C@H](C)NC(=O)[C@H](C)NC(=O)[C@H](Cc1cnc[nH]1)NC(=O)[C@H](CC(N)=O)NC(=O)CNC(=O)[C@H](C)NC(=O)CNC(=O)[C@H](Cc1cnc[nH]1)NC(=O)[C@H](CC(C)C)NC(=O)[C@H](CC(C)C)NC(=O)[C@H](CCC(=O)O)NC(=O)[C@H](Cc1ccc(O)cc1)NC(=O)[C@H](CC(C)C)NC(=O)[C@H](CCCNC(=N)N)NC(=O)[C@H](CS)NC(=O)[C@H](CO)NC(=O)[C@H](CS)NC(=O)[C@@H](NC(=O)[C@H](CCCCN)NC(=O)[C@H](CCC(N)=O)NC(=O)[C@H](CCCNC(=N)N)NC(=O)[C@H](CS)NC(=O)[C@H](CS)NC(=O)[C@H](CC(=O)O)NC(=O)[C@@H]1CCCN1C(=O)[C@H](CC(C)C)NC(=O)[C@@H]1CCCN1C(=O)[C@@H]1CCC(=O)N1)[C@@H](C)O)C(=O)N[C@@H](CC(C)C)C(=O)N[C@H](C(=O)N[C@@H](CC(C)C)C(=O)O)[C@@H](C)O |
